ChEMBL document CHEMBL1201862, “PubChem BioAssay data set” (2004)
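Where inhibition never reached the appropriate level, the endpoint shown equals the highest concentration tested. Otherwise, values were interpolated linearly from a five-concentration, 48-hour dose response in 96-well plates. Here, GI50 denotes the concentration required for 50% inhibition of growth.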 The source made the active and inactive calls. Cut-off read from the data, not from the text of the source: active = GI50 up to about 1.1 µM and inactive = higher.

Assays:
Experiment in all cases: NCI tumour cell line growth inhibition, 48 h
MCF7 = system: MCF7
OVCAR-8 = system: OVCAR-8
M14 = system: M14
OVCAR-4 = system: OVCAR-4
SNB-75 = system: SNB-75
EKVX = system: EKVX
IGROV-1 = system: IGROV-1
K562 = system: K562
HT-29 = system: HT-29
NCI-H226 = system: NCI-H226
OVCAR-5 = system: OVCAR-5
NCI-H23 = system: NCI-H23
SK-MEL-28 = system: SK-MEL-28
SK-OV-3 = system: SK-OV-3
KM12 = system: KM12
HOP-92 = system: HOP-92
U-251 = system: U-251
OVCAR-3 = system: OVCAR-3
SF-295 = system: SF-295
SF-539 = system: SF-539

Measured: GI50

Cc1nc2ccccc2n1C(=O)c1c(F)c(F)c(F)c(F)c1F
inactive: MCF7 5.12 µM | OVCAR-8 17.7 µM | M14 10.8 µM | OVCAR-4 14.5 µM | SNB-75 25.4 µM | EKVX 28.3 µM | IGROV-1 19.1 µM | K562 5.48 µM | HT-29 4.98 µM | NCI-H226 18.8 µM | OVCAR-5 19 µM | NCI-H23 17 µM | SK-MEL-28 29.4 µM | SK-OV-3 22.3 µM | KM12 3.13 µM | HOP-92 11.7 µM | U-251 19 µM | OVCAR-3 24.3 µM | SF-295 28.8 µM | SF-539 11.6 µM

Cc1cc(C)n(C(=C(C(Cl)=C(Cl)Cl)[N+](=O)[O-])n2nc(C)cc2C)n1
inactive: MCF7 2.55 µM | OVCAR-8 3.06 µM | M14 3.8 µM | OVCAR-4 3.59 µM | SNB-75 6.25 µM | EKVX 2.58 µM | IGROV-1 4.03 µM | K562 2.02 µM | HT-29 3.5 µM | NCI-H226 5.66 µM | OVCAR-5 7.93 µM | NCI-H23 3.23 µM | SK-MEL-28 6.17 µM | SK-OV-3 3.29 µM | KM12 3.48 µM | HOP-92 2.72 µM | U-251 3.44 µM | OVCAR-3 3.08 µM | SF-295 3.85 µM | SF-539 4.59 µM

C[C@]12CC[C@H]3[C@@H](CCC4=CC(=O)CC[C@@]43C)[C@@H]1CC[C@@H]2C(=O)COS(=O)(=O)c1ccc(Br)cc1
inactive: MCF7 8.15 µM | OVCAR-8 3.61 µM | M14 6.55 µM | OVCAR-4 4.5 µM | SNB-75 17.5 µM | EKVX 7.67 µM | IGROV-1 1.6 µM | K562 4.09 µM | HT-29 11.8 µM | NCI-H226 13.2 µM | OVCAR-5 18.1 µM | NCI-H23 2.37 µM | SK-MEL-28 21 µM | SK-OV-3 15.1 µM | KM12 15.1 µM | HOP-92 5.94 µM | U-251 8.93 µM | OVCAR-3 6.43 µM | SF-295 19.3 µM | SF-539 9.25 µM

CC(=O)Oc1ccccc1C(=O)Nc1ncc([N+](=O)[O-])s1 [NITAZOXANIDE]
inactive: MCF7 10.2 µM | OVCAR-8 15.7 µM | M14 15.9 µM | OVCAR-4 28.7 µM | SNB-75 10.2 µM | EKVX 21 µM | IGROV-1 16.3 µM | K562 55.7 µM | HT-29 15.5 µM | NCI-H226 8.83 µM | OVCAR-5 29.9 µM | NCI-H23 9.73 µM | SK-MEL-28 11.6 µM | SK-OV-3 14.7 µM | KM12 22 µM | HOP-92 3.22 µM | U-251 19.4 µM | OVCAR-3 5.71 µM | SF-295 9.91 µM | SF-539 24.8 µM
